Experiments:
[1] = test system: cultured human mast cells (CHMC); assay: CHMC low cell density IgE activation: tryptase assay; format: cell-based; settings: anti-IgE
Summary of the method: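 Cultured human mast cells (1000-1500 cells/well, donor-dependent) equilibrated 1 hr at 37° C, then stimulated with anti-IgE for 30 min at 37° C. Tryptase released into the supernatant is measured with a fluorogenic tryptase substrate after 30 min at room temperature.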

[2] = test system: cultured human mast cells (CHMC); assay: CHMC low cell density ionomycin activation: tryptase assay; format: cell-based

| IC50 [1] [µM] | IC50 [2] [µM] | IC50 ([1]; Homo sapiens, Mast cell) [µM] | IC50 ([2]; Homo sapiens, Mast cell) [µM] | Molecule |
| --- | --- | --- | --- | --- |
| 1.24 | > 10 |  |  | COC(=O)Cn1ncc2cc(Nc3ncc(F)c(Nc4ccc5c(cnn5CC(=O)OC)c4)n3)ccc21 [R935211, N2,N4-Bis[1-(methoxycarbonyl)methyl-indazoline-5-yl]-5-fluoro-2,4-pyrimidinediamine] |
| 0.761 | > 10 |  |  | CON=C(N)COc1ccc(Nc2ncc(F)c(Nc3cccc(O)c3)n2)cc1 [R945167, 5-Fluoro-N4-(3-hydroxyphenyl)-N2-[4-(2-methoxyimino(amino)ethyleneoxy)phenyl]-2,4-pyrimidinediamine] |
| > 10 | > 10 |  |  | CCOC(=O)c1cnc(N[C@@H](Cc2ccccc2)C(=O)OCC)nc1N[C@@H](Cc1ccccc1)C(=O)OCC [R926526, 2,4-Bis[N-(L)-phenylalaninylethyl ester]-5-ethoxycarbonylpyrimidine] |
| > 10 | > 10 |  |  | 5-Cyano-N2-(3,4-ethylenedioxyphenyl)-N4-(methoxycarbonylbenzyl)-2,4-pyrimidinediamine [R925820] |
| 3.75 | > 10 |  |  | O=C(O)COc1ccc(Nc2ncc(F)c(Nc3cccc(O)c3)n2)cc1 [R926564, N2-(4-Carboxymethyleneoxyphenyl)-5-Fluoro-N4-(3-hydroxyphenyl)-2,4-pyrimidinediamine] |
| 0.296 | > 10 |  |  | CNC(=O)COc1cccc(Nc2ncc(F)c(Nc3ccc(OC)c(C(F)(F)F)c3)n2)c1 [R926835, 5-Fluoro-N4-(4-methoxy-3-trifluoromethylphenyl)-N2-[3-(N-methylamino)carbonylmethyleneoxyphenyl]-2,4-pyrimidinediamine] |
| 1.71 | > 10 |  |  | COCOc1ccc(Nc2nc(Nc3cccc(O)c3)ncc2F)c(F)c1 [R926680, 5-Fluoro-N4-[2-fluoro-4-(methoxymethyleneoxy)phenyl]-N2-(3-hydroxyphenyl)-2,4-pyrimidinediamine] |
| 0.409 | > 10 |  |  | OCCCn1ncc2cc(Nc3ncc(F)c(Nc4cccc(OC(F)(F)F)c4)n3)ccc21 [R935362, 5-Fluoro-N2-[1-(3-hydroxypropyl)indazoline-5-yl]-N4-(3-trifluoromethoxyphenyl)-2,4-pyrimidinediamine] |
| > 10 | > 10 |  |  | CCOC(=O)CCn1ncc2cc(Nc3ncc(F)c(Nc4ccc(Cl)cc4)n3)ccc21 [R935353, N4-(4-Chlorophenyl)-N2-[1-(2-ethoxycarbonylethyl)indazoline-5-yl]-5-fluoro-2,4-pyrimidinediamine] |
| 0.668 | > 10 |  |  | COC(=O)COc1cccc(Nc2ncc(F)c(Nc3cccc(O)c3)n2)c1 [R945118, 5-Fluoro-N4-(3-hydroxyphenyl)-N2-(3-methoxycarbonylmethyleneoxyphenyl)-2,4-pyrimidinediamine] |
| 0.342 | > 10 |  |  | CNC(=O)COc1cccc(Nc2ncc(F)c(Nc3cccc(OC)c3)n2)c1 [R926738, 5-Fluoro-N4-(3-methoxyphenyl)-N2-[3-(N-methylamino)carbonylmethyleneoxyphenyl]-2,4-pyrimidinediamine] |
| 0.232 | 4.13 |  |  | COC(=O)COc1ccc(Nc2ncc(F)c(Nc3ccc(OC(C)C)cc3)n2)cc1 [R935159, 5-Fluoro-N4-(4-isopropoxyphenyl)-N2-(4-methoxycarbonylmethyleneoxyphenyl)-2,4-pyrimidinediamine] |
| 1.58 | > 10 |  |  | CNC(=O)CCn1ncc2ccc(Nc3nc(Nc4ccc5c(c4)OCCO5)ncc3F)cc21 [R935288, N2-(3,4-Ethylenedioxyphenyl)-5-fluoro-N4-[1-[2(N-methylaminocarbonyl)ethyl]-indazoline-6-yl]-2,4-pyrimidinediamine] |
| > 10 | > 10 |  |  | Cc1nc(COc2cccc(Nc3ncc(F)c(Nc4ccc5oc(C(=O)O)cc5c4)n3)c2)no1 [R945134, N4-(2-Carboxybenzofuran-5-yl)-5-fluoro-N2-[3-(5-methyl-1,2,4-oxadiazol-3-yl)methyleneoxyphenyl]-2,4-pyrimidinediamine] |
| 2.14 | 8.74 |  |  | CCOC(=O)COc1cccc(Nc2ncc(F)c(Nc3cccc(C(C)(C)C)c3)n2)c1 [R940270, N4-(3-tert-Butylphenyl)-N2-(3-ethoxycarbonylmethyleneoxyphenyl)-5-fluoro-2,4-pyrimidinediamine] |
| 1.27 | > 10 |  |  | COC(=O)Cn1ncc2ccc(Nc3ncc(F)c(Nc4ccc5c(c4)OCCO5)n3)cc21 [R935208, N4-(3,4-ethylenedioxyphenyl)-5-fluoro-N2-[1-(methoxycarbonyl)methyl-indazoline-6-yl]-2,4-pyrimidinediamine] |
| 0.889 | > 10 |  |  | CC(C)(CO)c1ccc(Nc2ncc(F)c(Nc3ccc4oc(CO)cc4c3)n2)cc1 [R935177, 5-Fluoro-N2-[4-(2-hydroxy-1,1,dimethylethyl)phenyl]-N4-(2-hydroxymethylbenzofur-5-yl)-2,4-pyrimidinediamine] |

| IC50 [1] [µM] | IC50 [2] [µM] | IC50 ([1]; Homo sapiens, Mast cell) [µM] | IC50 ([2]; Homo sapiens, Mast cell) [µM] | Molecule |
| --- | --- | --- | --- | --- |
| 0.661 | > 10 |  |  | CNC(=O)COc1ccc(Nc2ncc(F)c(Nc3cccc(O)c3)n2)cc1 [R945170, 5-Fluoro-N4-(3-hydroxyphenyl)-N2-[4-(N-methylamino)carbonylmethyleneoxyphenyl]-2,4-pyrimidinediamine] |
| 0.82 | > 10 |  |  | Cn1nnc(COc2ccc(Nc3ncc(F)c(Nc4ccc(OCc5nnn(C)n5)cc4)n3)cc2)n1 [R945046, N2,N4-Bis[4-(2-methyl-1,2,3,4-tetrazol-5-yl)methyleneoxyphenyl]-5-fluoro-2,4-pyrimidinediamine] |
| 0.156 | > 10 |  |  | Fc1cnc(Nc2ccc3cn[nH]c3c2)nc1Nc1ccc2c(c1)OCCO2 [R935190, N4-(3,4-Ethylenedioxyphenyl)-5-fluoro-N2-(indazolin-6-yl)-2,4-pyrimidinediamine] |
|  |  | 0.327 | > 10 | CCOC(=O)CNc1cccc(Nc2ncc(F)c(Nc3cccc(O)c3)n2)c1 [R950216] |
| 0.256 | 4.66 |  |  | CCOC(=O)C(C)(C)c1ccc(Nc2nc(Nc3ccc(OCC(=O)OC)cc3)ncc2F)cc1 [R935157, N4-[4-[(1-Ethoxycarbonyl-1-methyl)ethyl]phenyl]-5-fluoro-N2-(4-methoxycarbonylmethyleneoxyphenyl)-2,4-pyrimidinediamine] |
| 0.306 | > 10 |  |  | CNC(=O)COc1cc(Nc2ncc(F)c(Nc3ccc4c(c3)OCCO4)n2)ccc1OC [R926828, N4-(3,4-Ethylenedioxyphenyl)-5-fluoro-N2-[4-methoxy-3-(N-methylamino)carbonylmethyleneoxyphenyl]-2,4-pyrimidinediamine] |
| 1.1 | > 10 |  |  | CCOc1ccc(Nc2nc(Nc3cccc(OCC(=O)NC)c3)ncc2F)cc1 [R926827, N4-(4-Ethoxyphenyl)-5-fluoro-N2-[3-(N-methylamino)carbonylmethyleneoxyphenyl]-2,4-pyrimidinediamine] |
| > 10 | > 10 |  |  | Oc1cccc(Nc2nc(Nc3ccc(OCc4nnn[nH]4)cc3)ncc2F)c1 [R920818, 5-Fluoro-N4-(3-hydroxyphenyl)-N2-[4-(1,2,3,4-tetrazol-5-yl)methyleneoxyphenyl]-2,4-pyrimidinediamine] |
| > 10 | > 10 |  |  | CCOC(=O)COc1ccc(Nc2ncc(-c3nnn[nH]3)c(Nc3ccc(OCC(=O)OCC)cc3)n2)cc1 [R925810, N2,N4-Bis(4-ethoxycarbonylmethyleneoxyphenyl)-5-(1,2,3,4-tetrazol-5-yl)-2,4-pyrimidinediamine] |
| 0.18 | > 10 |  |  | CNC(=O)COc1cccc(Nc2ncc(F)c(Nc3cccc(NC)c3)n2)c1 [R950267, N4-(3-N-Methylaminophenyl)-5-fluoro-N2-[3-(N-methylamino)carbonylmethyleneoxyphenyl]-2,4-pyrimidinediamine] |
| 8.75 | > 10 |  |  | CCOC(=O)c1cnc(Nc2cccc(O)c2)nc1N[C@@H](Cc1ccccc1)C(=O)OCC [R926528, 5-Ethoxycarbonyl-N2-(3-hydroxyphenyl)-4-[N-(L)-phenylalanineethyl ester]-2-pyrimidineamine] |
| 2.39 | > 10 |  |  | CNC(=O)COc1cccc(Nc2nc(Nc3ccc4c(c3)NCCO4)ncc2F)c1 [R909247, N2-(1,4-Benzoxazin-6-yl)-5-fluoro-N4-[3-(N-methylamino)carbonylmethyleneoxyphenyl]-2,4-pyrimidinediamine] |
| > 10 | > 10 |  |  | COc1ccc(-c2ccccc2)cc1Nc1ncc(F)c(Nc2cc(-c3ccccc3)ccc2OC)n1 [R926400, N2,N4-Bis[(2-methoxy-5-phenyl)phenyl]-5-fluoro-2,4-pyrimidinediamine] |
| 0.913 | > 10 |  |  | CNCc1cccc(Nc2nc(Nc3cccc(OCC(=O)NC)c3)ncc2F)c1 [R940317, N4-(3-N-methylaminomethylenephenyl)-5-fluoro-N2-[3-(methylaminocarbonylmethyleneoxy)phenyl]-2,4-pyrimidinediamine] |
| 0.305 | > 10 |  |  | CNC(=O)COc1cccc(Nc2ncc(F)c(Nc3ccc(C)c(C(F)(F)F)c3)n2)c1 [R926922, 5-Fluoro-N2-[3-[(N-methylamino)carbonylmethyleneoxy]phenyl]-N4-(4-methyl-3-trifluoromethylphenyl)-2,4-pyrimidinediamine] |
| 10 | > 10 |  |  | COC(=O)c1cc2cc(Nc3nc(Nc4ccc(OCc5nc(-c6ccccc6)no5)cc4)ncc3F)ccc2o1 [R935137, 5-Fluoro-N4-(2-methoxycarbonylbenzofura-5-yl)-N2-[4-(3-phenyl-1,2,4-oxadiazol-5-yl)methyleneoxyphenyl]-2,4-pyrimidinediamine] |
| 10 | > 10 |  |  | OB(O)c1cccc(Nc2ncc(F)c(Nc3cccc(B(O)O)c3)n2)c1 [R926836, N2,N4-Bis(3-boronylphenyl)-5-fluoro-2,4-pyrimidinediamine] |
